Where two headings read alike, the source gives them in different places.
Tests used:
[1] = tested on: PMA differentiated THP-1 human macrophages stimulated with Aβ(1-42) peptides; assay: Aβ(1-42)-induced inflammatory cytokines in human macrophages (RT-PCR, ELISA); assay type: cell-based; conditions: Aβ(1-42) 10 μM, 5 hours; for concentration at which IL-1β protein production was decreased: ELISA; for IFN-β mRNA expression / IL-1α mRNA expression: dose-dependent
Method: (§1) THP-1 cells were differentiated using PMA (50 ng/mL) as previously described and stimulated with either LPS (10 ng/mL) or […] human Aβ(1-42) peptides alone, or in combination with COB-152, COB-187 or 0.1% DMSO solvent for 5 hours. Following incubation, the supernatant was collected and stored at −80° C. until assayed for IL-6, TNF-α, and IL-1β protein by ELISA, whereas RNA extracted from the cells was reverse transcribed and subjected to quantitative RT-PCR for quantification of IL-6, TNF-α, IL-1α, IL-1, and IFN-β mRNA. All experiments were performed at least thrice and in duplicates.
(§2) RNA extracted from differentiated THP-1 cells treated as previously described was reverse transcribed to cDNA and subjected to quantitative RT-PCR. Relative IL-6, TNF-α, IL-1α, IL-1, and IFN-β gene expression was determined by normalizing with Hprt1 using the comparative Ct method. Commercially available cytokine ELISA kits (BD Biosciences, Burlington, N.C.) were used to quantify the levels of secreted IL-6, TNF-α, and IL-1 protein in the supernatant obtained from differentiated THP-1 cells treated with either LPS (10 ng/mL) or 10 μM human Aβ(1-42) peptides alone, or in combination with COB-152, COB-187 or 0.1% DMSO solvent. The ELISA was performed according to the manufacturer's protocol. The supernatant was diluted with the assay diluent at different ratios as shown in the TABLE 4 below for IL-6, TNF-α, and IL-1β. All samples were tested in duplicates and the results were expressed as Mean±SD of the cytokine concentration (pg/mL). All results presented were corrected for dilution factor.

non-GSK-3 kinases = assay: kinase screen, non-GSK-3 kinases; conditions: COB-152 at 2 μM; COB-187 at 1 μM; FIG. 3
GSK-3α = GSK-3α (Homo sapiens, UniProt P49840); assay: fluorescence-based molecular assay of GSK-3α activity; conditions: 60 minutes at room temperature, Ser/Thr substrate and ATP
Sequence of GSK-3α (P49840 whole entry, species assumed): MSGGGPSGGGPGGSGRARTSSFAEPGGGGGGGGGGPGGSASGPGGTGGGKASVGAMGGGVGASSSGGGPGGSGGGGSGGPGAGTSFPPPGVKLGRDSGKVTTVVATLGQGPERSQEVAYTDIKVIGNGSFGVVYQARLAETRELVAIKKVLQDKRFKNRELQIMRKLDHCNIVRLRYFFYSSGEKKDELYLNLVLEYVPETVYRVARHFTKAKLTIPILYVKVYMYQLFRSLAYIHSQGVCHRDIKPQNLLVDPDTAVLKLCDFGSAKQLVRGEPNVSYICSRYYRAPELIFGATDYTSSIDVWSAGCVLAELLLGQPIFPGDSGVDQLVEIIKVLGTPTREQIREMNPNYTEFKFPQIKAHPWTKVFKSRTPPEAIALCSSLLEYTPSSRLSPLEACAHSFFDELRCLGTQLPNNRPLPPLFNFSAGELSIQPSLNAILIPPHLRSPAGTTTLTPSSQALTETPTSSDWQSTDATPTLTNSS
Text: (§5) Subsequently, the solution was developed and the fluorescence was read to infer the activity of the protein.

[2] = tested on: PMA differentiated THP-1 human macrophages stimulated with LPS; assay: LPS-induced inflammatory cytokines in human macrophages (RT-PCR, ELISA); assay type: cell-based; conditions: LPS 10 ng/mL, 5 hours
Method: as §1, §2

[3] = tested on: PMA differentiated THP-1 cells; assay: western blotting of β-catenin and GSK-3 in PMA differentiated THP-1 cells; assay type: cell-based, human; conditions: for expression of β-catenin protein: PMA differentiated THP-1, 0.5-25 μM, 5 hours; for expression of GSK-3: PMA differentiated THP-1, higher concentrations, e.g., 10 μM and 25 μM
Method: RAW 264.7 cells were cultured in RPMI 1640 medium supplemented with 10% FBS and 0.5% penicillin-streptomycin stabilized solution. THP-1 cells were cultured and differentiated into macrophages using phorbol 12-myristate 13-acetate (i.e., PMA). More specifically, THP-1 cells were cultured in RPMI-1640 10% FBS supplemented with 0.05 mM 2-mercaptoethanol. For differentiation to a macrophage phenotype, THP-1 cells were stimulated with PMA (50 ng/mL) for 24 hours. Differentiated THP-1 cells were washed with fresh media twice before incubation for 24 more hours at 37° C., 5% CO2 in a humidified incubator. The monolayer was then treated with ox-LDL or native LDL (both at either 50 or 100 μg/mL) and LPS (10 ng/mL) for 4 hours. Undifferentiated THP-1 cells were cultured and treated under similar conditions were used as a control.
(§3) To test the ability of COB-187 and COB-152 to increase β-catenin levels, RAW 264.7 macrophages and PMA differentiated THP-1 cells were treated with COB-152 or COB 187 at different concentrations or 0.1% (v/v) DMSO solvent for 5 hours. Following treatment, protein was extracted and probed for β-catenin and total GSK-3 via western blotting.
(§4) More specifically, RAW 264.7 cells and PMA differentiated THP-1 cells were treated with varying concentrations of COB-187 or COB-152 dissolved in culture media containing 0.1% (v/v) dimethylsulfoxide (i.e., DMSO) solvent or with 0.1% (v/v) DMSO alone for 5 or 24 hours. After incubation, […] protein was extracted from the cells and quantified. More specifically, culture supernatant was collected and store at −80° C. until further use. The cells were lysed in 10 mM Tris HCl at pH 7.5, 150 mM NaCl, and 1% nonyl phenoxypolyethoxylethanol-40, containing a cocktail of protease inhibitors (Roche, Mannheim, Germany). Insoluble material was pelleted and the supernatant containing total protein as well as the culture supernatant was quantified using a Micro BCA protein kit. […] of protein was then resolved onto a denaturing gel, transferred to a nitrocellulose membrane, and immunoblotted with antibodies against GSK-3 and β-catenin. Signals were detected using the Li-Cor Odyssey Infrared Imaging System (Lincoln, Nebr.). Membranes were stripped and reprobed with primary antibody for β-actin as a loading control. All experiments were performed at least thrice in both RAW 264.7 and PMA differentiated THP-1 cells, and in duplicates.

[4] = tested on: RAW 264.7 murine macrophages; assay: western blotting of β-catenin and GSK-3 in RAW 264.7 macrophages; assay type: cell-based; conditions: for expression of β-catenin protein: RAW 264.7, 0.5-25 μM, 5 hours; for expression of GSK-3: RAW 264.7, higher concentrations, e.g., 10 μM and 25 μM
Method: as §3, §4

GSK-3α and GSK-3β = assay: kinase screen, GSK-3; conditions: COB-152 at 2 μM; COB-187 at 1 μM; FIG. 3
GSK-3β = GSK-3β (Homo sapiens, UniProt P49841); assay: fluorescence-based molecular assay of GSK-3β activity; conditions: 60 minutes at room temperature, Ser/Thr substrate and ATP
Sequence of GSK-3β (P49841 whole entry, species assumed): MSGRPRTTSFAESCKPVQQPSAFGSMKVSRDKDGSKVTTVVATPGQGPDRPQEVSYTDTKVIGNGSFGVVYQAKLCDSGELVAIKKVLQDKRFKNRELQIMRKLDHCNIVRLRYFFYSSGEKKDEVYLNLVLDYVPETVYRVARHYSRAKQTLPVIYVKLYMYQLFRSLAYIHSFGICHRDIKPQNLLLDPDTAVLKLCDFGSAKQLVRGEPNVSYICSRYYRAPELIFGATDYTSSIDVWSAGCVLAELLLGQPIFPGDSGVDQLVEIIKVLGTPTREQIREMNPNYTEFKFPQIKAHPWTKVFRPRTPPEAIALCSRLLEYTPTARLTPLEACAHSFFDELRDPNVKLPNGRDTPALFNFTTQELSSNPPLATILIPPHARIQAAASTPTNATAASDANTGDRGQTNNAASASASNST
Text: as §5

[5] = tested on: RAW 264.7 murine macrophages; assay: quantitative RT-PCR of β-catenin mRNA in RAW 264.7 cells; assay type: cell-based; conditions: RAW 264.7, 4, 20 or 40 μM, 5 hours
Method: RAW 264.7 cells were treated with varying concentrations of COB-187, COB-152 or 0.1% (v/v) DMSO solvent alone for 5 or 24 hours. Following treatment, RNA was extracted from the cells and reverse transcribed. More specifically, total RNA was isolated using RNeasy plus mini kit according to the manufacturer's protocol and quantified using a Nanodrop 2000C Spectrophotometer. First-strand cDNA was synthesized from total RNA using cDNA Reverse Transcription Kit according to the manufacturer's protocol. Quantitative RT-PCR was performed using Taqman Gene Expression Assay (Life Technologies, Waltham, Mass.) and mouse primers for GAPDH and β-catenin. Relative gene expression was determined by normalizing with GAPDH using the comparative Ct method. All experiments were performed at least thrice in duplicates.

[6] = tested on: LPS induced RAW macrophages; assay: LPS-induced IL-6 mRNA in RAW 264.7 macrophages; assay type: cell-based; conditions: LPS stimulated murine macrophages, 0.1, 1 or 10 μM
Method: RAW 264.7 were stimulated with either LPS (10 ng/mL) alone, or in combination with COB-152, COB-187 or 0.1% DMSO solvent for 5 hours. Following incubation, RNA was extracted from the cells. Quantitative RT-PCR was used to quantify expression of mRNA.

[7] = cited from earlier work
[8] = Alzheimer's disease, Phase IIb; cited from earlier work

Row | Compound | IL-6 production (mRNA and protein) [1] | TNF-α production (mRNA and protein) [1] | concentration at which IL-1β protein production was decreased [1] [µM] | IFN-β mRNA expression [1] | IL-1α mRNA expression [1] | effect on non-GSK-3 kinases, such as the cyclin dependent protein kinases (non-GSK-3 kinases) | IL-1α mRNA expression [2] | IL-6 production (mRNA and protein) [2] | TNF-α production (mRNA and protein) [2] | expression of β-catenin protein [3] | expression of GSK-3 [3] | expression of β-catenin protein [4] | expression of GSK-3 [4] | expression of β-catenin mRNA [5] | other results
1 | OC1(c2ccccc2)CSC(=S)N1Cc1ccncc1 (stereo not shown) [COB-187] | dose-dependent decrease | dose-dependent decrease | ≥ 10 | inhibited | inhibited | little effect | inhibited | dose-dependent decrease | dose-dependent decrease | increased expression | may also be affected | increased in a dose-dependent manner | may also be affected | did not alter | IC50, inhibition of GSK-3α activity (GSK-3α): nanomolar range; IL-1β protein production ([2]; ELISA): dose-dependent decrease; activity of GSK-3α/β in kinase screen (GSK-3α and GSK-3β): inhibit; IC50, inhibition of GSK-3β activity (GSK-3β): nanomolar range
2 | OC1(c2ccccc2)CSC(=S)N1Cc1cccnc1 (stereo not shown) [COB-152] | dose-dependent decrease | dose-dependent decrease | ≥ 25 | inhibited | inhibited | little effect | inhibited | dose-dependent decrease | dose-dependent decrease | increased expression | may also be affected | increased in a dose-dependent manner | may also be affected | did not alter | concentration at which IL-1β protein production was decreased ([2]; ELISA): ≥ 50 µM; IL-6 mRNA production [6]: dose dependently inhibited
3 | O=c1sn(-c2cccc3ccccc23)c(=O)n1Cc1ccccc1 [tideglusib] |  |  |  |  |  |  |  |  |  |  |  |  |  |  | progression of global cerebral atrophy compared to placebo ([7]; analysis of a sub-set of patients): reduced progression of global cerebral atrophy; primary endpoint ([7]; progressive supranuclear palsy, phase II): did not meet is primary endpoint; primary endpoint [8]: primary endpoint was not achieved
